≈ marks a conversion by molar mass, not a printed value. Read-outs that look alike come from different tables or passages of the source.
Tests used:
Clostridium difficile = experiment: microbe, parasite or virus in culture; assay type: cell-based; details: Clostridioides difficile
Description: Compounds I to VII were screened against twelve clinical isolates of Clostridium difficile.
In addition, compounds L to LIII were screened against […] isolates of Clostridium difficile.

C. difficile spores = experiment: Sporicidal activity: viable counts of C. difficile spores exposed to antibiotics; assay type: cell-based
Description: An agent capable of killing, or preventing the successful germination of C. difficile spores would therefore be of considerable interest. To determine the effects of type B lantibiotics on C. difficile spores, suspensions of spores were exposed to antibiotics ([…]) and aliquots were taken at appropriate time points. The spores in each aliquot were filtered off and plated out on to Brazier's agar.

[1] = system: C. difficile strain VPI 10463; assay type: in vivo; details: hamster, three times daily at 50 mg/kg/day, 5-day dosing period
Description: The in vivo efficacy of two type B Lantibiotics in the treatment of C. difficile infections was evaluated in the standard animal model for CDAD: clindamycin-induced cecitis in hamster (FIG. 3). Four groups of six animals were dosed orally with approximately 10^7 cells of C. difficile strain VPI 10463 and 24 hours later with a subcutaneous dose of 10 mg/kg clindamycin phosphate.

E. coli = experiment: microbe, parasite or virus in culture; details: Escherichia coli
E. faecium = experiment: microbe, parasite or virus in culture; details: Enterococcus faecium
E. faecalis = experiment: microbe, parasite or virus in culture; details: Enterococcus faecalis
[2] = system: Bifidobacterium adolescentis NCTC 11814; experiment: microbe, parasite or virus in culture; details: NCTC11814, read-out: Minimal Inhibitory Concentration (MIC)
[3] = system: Bifidobacterium longum NCTC 11818; experiment: microbe, parasite or virus in culture; details: NCTC11818, read-out: Minimal Inhibitory Concentration (MIC)
[4] = system: Bacteroides fragilis NCTC 9343; experiment: microbe, parasite or virus in culture; details: NCTC9343, read-out: Minimal Inhibitory Concentration (MIC)
[5] = system: Bacteroides thetaiotaomicron NCTC 10582; experiment: microbe, parasite or virus in culture; details: NCTC10582, read-out: Minimal Inhibitory Concentration (MIC)
[6] = VRE, read-out: Minimal Inhibitory Concentration (MIC)

What does the source list for `CN[C@H](CC(C)C)C(=O)N[C@H]1C(=O)N[C@@H](CC(N)=O)C(=O)N[C@H]2C(=O)N[C@H]3C(=O)N[C@H](C(=O)N[C@H](C(=O)O)c4cc(O)cc(O)c4-c4cc3ccc4O)[C@H](O)c3ccc(c(Cl)c3)Oc3cc2cc(c3O[C@@H]2O[C@H](CO)[C@@H](O)[C@H](O)[C@H]2O[C@H]2C[C@](C)(N)[C@H](O)[C@H](C)O2)Oc2ccc(cc2Cl)[C@H]1O` [Vancomycin]?
MIC (Clostridium difficile; read-out: Minimal Inhibitory Concentration (MIC), C. difficile strain 027C): 1 µg/mL (≈ 0.69 µM); MIC (Clostridium difficile; read-out: Minimal Inhibitory Concentration (MIC), C. difficile strain 27SM): 1 µg/mL (≈ 0.69 µM); MIC (Clostridium difficile; read-out: Minimal Inhibitory Concentration (MIC), C. difficile strain 19126): 1 µg/mL (≈ 0.69 µM); MIC (Clostridium difficile; read-out: Minimal Inhibitory Concentration (MIC), C. difficile strain 37779): 2 µg/mL (≈ 1.38 µM); MIC (Clostridium difficile; read-out: Minimal Inhibitory Concentration (MIC), C. difficile strain B32): 1 µg/mL (≈ 0.69 µM); MIC (Clostridium difficile; read-out: Minimal Inhibitory Concentration (MIC), C. difficile strain E4): 1 µg/mL (≈ 0.69 µM); MIC (Clostridium difficile; read-out: Minimal Inhibitory Concentration (MIC), C. difficile strain E16): 0.5 µg/mL (≈ 0.345 µM); MIC (Clostridium difficile; read-out: Minimal Inhibitory Concentration (MIC), C. difficile strain E101): 0.5 µg/mL (≈ 0.345 µM); MIC (Clostridium difficile; read-out: Minimal Inhibitory Concentration (MIC), C. difficile strain P24): 0.5 µg/mL (≈ 0.345 µM); MIC (Clostridium difficile; read-out: Minimal Inhibitory Concentration (MIC), C. difficile strain P49): 1 µg/mL (≈ 0.69 µM); MIC (Clostridium difficile; read-out: Minimal Inhibitory Concentration (MIC), C. difficile strain P59): 1 µg/mL (≈ 0.69 µM); MIC (Clostridium difficile; read-out: Minimal Inhibitory Concentration (MIC), C. difficile strain P62): 1 µg/mL (≈ 0.69 µM); Effect on C. difficile spore viability / germination (C. difficile spores; […]): no significant effect on spore viability; Viable counts of C. difficile spores (C. difficile spores; antibiotic at 100 µg/ml, time 24 h): 135; Survival of infected animals [1]: survived for the duration of the entire 5-day dosing period; MIC (E. coli; ATCC25922, read-out: Minimal Inhibitory Concentration (MIC)): > 64 µg/mL; MIC (E. coli; read-out: Minimal Inhibitory Concentration (MIC)): > 64 µg/mL; MIC (E. faecium; ATCC19579, read-out: Minimal Inhibitory Concentration (MIC)): 0.5 µg/mL (≈ 0.345 µM); MIC (E. faecium; [6]): > 64 µg/mL; MIC (E. faecalis; ATCC29212, read-out: Minimal Inhibitory Concentration (MIC)): 4 µg/mL (≈ 2.76 µM); MIC (E. faecalis; [6]): > 64 µg/mL; MIC [2]: 1 µg/mL (≈ 0.69 µM); MIC [3]: 1 to 2 µg/mL (≈ 0.69 to 1.38 µM); MIC [4]: 32 µg/mL (≈ 22.1 µM); MIC [5]: 64 µg/mL (≈ 44.2 µM)

From patent US8575094B2, “Use of type-B lantibiotic-based compounds having antimicrobial activity” (Novacta Biosystems Limited, priority 2007, dated 2013)
